Source: US20230406865A1, “CRYSTAL FORM OF FREE BASE OF INHIBITOR CONTAINING BICYCLIC RING DERIVATIVE AND PREPARATION METHOD AND APPLICATION OF CRYSTAL FORM” (SHANGHAI HANSOH BIOMEDICAL CO., LTD., priority 2020, published 2023)

Molecular target: hERG (Homo sapiens, UniProt Q12809)
Experiment: cell-based
Protocol: Terfenadine (Sigma-Aldrich, MKBX6318V); • HEK293-hERG cell line (human embryonic kidney cells stably expressing hERG channels), provided by Academy of Military Medical Sciences.
Human embryonic kidney cells (HEK293) stably expressing hERG channels were cultured in DMEM medium (DMEM, HyClone) in a 37° C. cell incubator containing 5% CO2. About 10% fetal bovine serum (FBS, gibco) was added to the cell culture medium.
Human embryonic kidney cells stably expressing hERG channels (HEK293-hERG) were used for the experiment. HEK293 cells were clamped with the Multi Clamp 700B manual patch clamp system to form a whole-cell voltage clamp pattern, and hERG current was induced with the corresponding voltage. […] The peak values of tail current recorded under the solvent control were taken as 100%, and the data of positive control and test samples were standardized. Curve fitting and IC50 calculation were done in the software GraphPad Prism 5.00 using the standard Hill equation.

Chain of hERG (Q12809 whole entry): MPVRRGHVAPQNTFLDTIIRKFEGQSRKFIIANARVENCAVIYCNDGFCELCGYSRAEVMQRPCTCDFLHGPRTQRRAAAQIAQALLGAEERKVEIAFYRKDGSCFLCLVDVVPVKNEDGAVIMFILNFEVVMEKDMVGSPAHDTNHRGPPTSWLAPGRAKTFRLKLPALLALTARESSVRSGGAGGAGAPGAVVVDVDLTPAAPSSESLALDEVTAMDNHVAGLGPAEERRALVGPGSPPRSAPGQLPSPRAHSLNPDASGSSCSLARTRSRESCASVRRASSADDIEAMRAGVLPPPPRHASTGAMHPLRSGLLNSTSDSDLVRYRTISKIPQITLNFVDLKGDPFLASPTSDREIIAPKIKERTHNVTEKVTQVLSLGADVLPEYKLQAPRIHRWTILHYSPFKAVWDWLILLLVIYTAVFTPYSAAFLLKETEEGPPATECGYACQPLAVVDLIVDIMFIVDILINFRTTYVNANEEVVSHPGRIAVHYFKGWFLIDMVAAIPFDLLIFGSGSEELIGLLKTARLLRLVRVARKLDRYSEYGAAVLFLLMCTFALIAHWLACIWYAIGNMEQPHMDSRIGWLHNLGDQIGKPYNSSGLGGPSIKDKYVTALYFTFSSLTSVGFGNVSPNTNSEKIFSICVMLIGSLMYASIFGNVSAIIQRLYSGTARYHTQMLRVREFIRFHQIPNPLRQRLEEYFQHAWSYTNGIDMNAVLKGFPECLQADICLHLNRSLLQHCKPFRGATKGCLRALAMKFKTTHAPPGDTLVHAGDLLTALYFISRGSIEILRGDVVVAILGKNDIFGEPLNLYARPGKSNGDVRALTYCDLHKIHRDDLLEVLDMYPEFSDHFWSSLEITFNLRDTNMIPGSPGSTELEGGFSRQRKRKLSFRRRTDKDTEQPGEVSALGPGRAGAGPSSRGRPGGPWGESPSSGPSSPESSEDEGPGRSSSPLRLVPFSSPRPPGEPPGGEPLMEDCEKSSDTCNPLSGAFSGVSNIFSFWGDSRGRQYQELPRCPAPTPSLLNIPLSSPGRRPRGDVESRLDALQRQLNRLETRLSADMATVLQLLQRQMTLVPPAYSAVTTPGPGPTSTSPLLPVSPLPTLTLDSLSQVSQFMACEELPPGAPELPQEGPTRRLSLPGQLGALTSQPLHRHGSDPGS

In the case of `C#C[C@@](C)(O)COc1cc(-c2ccc(N3CC4CC(C3)N4Cc3ccc(OC)nc3)nc2)c2c(C#N)cnn2c1` [Embodiment 63, 6-(((R)-2-hydroxy-2-methylbut-3-yn-1-yl)oxy)-4-(6-(6-((6-methoxypyridin-3-yl)methyl)-3,6-diazabicyclo[3.1.1]heptan-3-yl)pyridin-3-yl)pyrazolo[1,5-a]pyridine-3-carbonitrile], the IC50 is reported as 16.9 µM, the inhibition at 0.1 μmol/L (human) is reported as 3.24% and the inhibition at 1 μmol/L (human) is reported as 8.39%. The inhibition at 3 μmol/L (human) was 12.7%, the inhibition at 10 μmol/L (human) was 35.4% and the inhibition at 30 μmol/L (human) was 58.8%.
